One experiment relates to K562 cells. Put plainly: In-vitro cell viability assay (CellTiter-Glo), K562. Type of experiment: cell-based. To be noted: Homo sapiens. The protocol:
(§1) Tnk1 is known to drive proliferation and survival of Hodgkin's lymphoma (HL) cells, such as K652 and L540 cell lines (Gu et al., Identification of activated Tnk1 kinase in Hodgkin's lymphoma, Leukemia 24: 861-65 ((2010)). Downregulation of Tnk1 inhibits cell growth and proliferation, and increases apoptosis. To study the individual test compounds in the context of HL cells, CellTiter-Glo® assays (Promega, Madison, Wis.) were performed according to the manufacturer's instructions. The CellTiter-Glo® assay system uses a thermostable luciferase to generate a stable “glow-type” luminescent signal while simultaneously inhibiting endogenous enzymes released during cell lysis (e.g., ATPases). As such, the assay provides a sensitive and stable luminescent output.
(§2) Reagent Preparation • 1. The CellTiter-Glo® Buffer was thawed and equilibrated to room temperature prior to use. • 2. The lyophilized CellTiter-Glo® Substrate was equilibrated to room temperature prior to use. • 3. An appropriate volume of CellTiter-Glo® Buffer was transferred into the amber bottle containing CellTiter-Glo® Substrate according the manufacturer's recommendation. The reconstituted lyophilized enzyme/substrate mixture formed the CellTiter-Glo® Reagent. • 4. The CellTiter-Glo® Reagent was mixed by gently vortexing, swirling or inverting the contents to obtain a homogeneous solution.
(§3) Protocol for the Cell Viability Assay • 1. A titration of the K652 or L540 cells was performed to determine the optimal number and ensure that the CellTiter-Glo® Assay was performed within the linear range. • 2. Opaque-walled multiwell plates (compatible with the luminometer) were prepared with K652 or L540 cells in culture medium, 100 μl per well for 96-well plates or 25 μl per well for 384-well plates. • 3. Control wells containing medium without cells were prepared to obtain a value for background luminescence. • 4. Test compound was added to experimental wells, and incubated according to culture protocol. • 5. The plate and its contents were equilibrated at room temperature for approximately 30 minutes.
(§4) Protocol for Generating an ATP Standard Curve • 1. 1 μM ATP was prepared in culture medium (100 μl of 1 μM ATP solution contains 10^−10 moles ATP). • 2. Serial tenfold dilutions of ATP in culture medium (1 μM to 10 nM; 100 μl contains 10^−10 to 10^−12 moles of ATP) were performed. • 3. A multiwell plate with varying concentrations of ATP standard in 100 μl medium (25 μl for a 384-well plate) was prepared. • 4. A volume of CellTiter-Glo® Reagent equal to the volume of ATP standard present in each well was added. • 5. Contents were mixed for 2 minutes on an orbital shaker. • 6. The plate was allowed to incubate at room temperature for 10 minutes to stabilize the luminescent signal. • 7. Luminescence was recorded.
(In general: ATP-based viability assays read luminescence as a measure of living cells.)

Another experiment addresses T1, TNK1 (Homo sapiens, UniProt Q13470).
T1 sequence (Q13470 1-666): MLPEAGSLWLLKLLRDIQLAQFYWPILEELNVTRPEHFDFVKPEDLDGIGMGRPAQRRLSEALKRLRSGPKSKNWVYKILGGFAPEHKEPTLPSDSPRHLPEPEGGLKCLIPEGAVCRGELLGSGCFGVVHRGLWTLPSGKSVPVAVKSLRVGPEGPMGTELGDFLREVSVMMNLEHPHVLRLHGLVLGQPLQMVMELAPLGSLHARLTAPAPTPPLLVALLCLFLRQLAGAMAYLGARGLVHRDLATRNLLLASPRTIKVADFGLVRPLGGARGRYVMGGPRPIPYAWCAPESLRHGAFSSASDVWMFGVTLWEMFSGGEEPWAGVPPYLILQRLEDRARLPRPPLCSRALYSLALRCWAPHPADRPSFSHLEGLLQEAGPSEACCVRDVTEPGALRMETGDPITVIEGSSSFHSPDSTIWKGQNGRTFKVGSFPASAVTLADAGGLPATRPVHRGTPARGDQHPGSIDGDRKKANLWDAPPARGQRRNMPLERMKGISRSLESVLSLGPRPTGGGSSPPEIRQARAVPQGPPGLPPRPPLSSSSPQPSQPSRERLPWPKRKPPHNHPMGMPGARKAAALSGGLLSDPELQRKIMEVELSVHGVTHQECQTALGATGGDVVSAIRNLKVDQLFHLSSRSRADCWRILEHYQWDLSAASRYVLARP
Put plainly: TNK1 NanoBRET target engagement assay (HEK293). The format is cell-based. The arrangement: host or cells: HEK293. To be noted: HEK293 cells, 2 hours; read-out: NanoBRET TE Assay (HEK293) IC50. The text has this: The NanoBRET target engagement (TE) assay (Promega, Madison, Wis.) enables the interrogation of the displacement of a tracer compound in the active site of a recombinant kinase by a test compound in the intracellular setting. The assay enables simultaneous testing of permeability, solubility, and kinase inhibition, and tests the specific interaction of test agents with a kinase of interest, here, TNK1. The assay is based on the principle of bioluminescence resonance energy transfer (BRET). In the assay, a plasmid-encoded, luciferase-tagged form of TNK1 is transfected into cells. A tracer compound is tagged with a fluorophore that fluoresces when bound to the TNK1 protein. Readout is luminescence and fluorescence. Test compounds show activity by displacing the tracer, thus disrupting BRET.
Methods: The TNK1 NanoBRET TE assays were performed according to the manufacturer's protocol. Briefly, Nanoluc-TNK1 Fusion Vector (Promega, Madison, Wis., Cat. No. NV2181) was transfected into HEK293 cells in bulk (8×10^6 cells in a T175 flask). Up to 30 hours post-transfection, cells were harvested by trypsinization, resuspended at a concentration of 2×10^5 cells/mL, and seeded in 96-well plates at 85 μL/well. A test compound and the K5 tracer were added to each well, and the cells were incubated for 2 hours. Luminescence ([…]) and fluorescence ([…]) were measured to determine a BRET ratio. IC50 values were determined from the BRET ratios using the Graphpad Prism software (GraphPad Software, San Diego, Calif.).
(In general: Bioluminescence resonance energy transfer reports proximity on the nanometre scale.)

For a further experiment, the system named is L540 cells. Put plainly: In-vitro cell viability assay (CellTiter-Glo), L540. Type of experiment: cell-based. The settings on record: Homo sapiens, L-540. The protocol: as §1, §2, §3, §4
The subject of experiment [1] is pSTAT5 in L540 xenograft tumors. The experiment in a line: pSTAT5 assay in L540 xenograft tumors (ELISA). The format is in vivo, mouse. To be noted: 10 mg/kg and 25 mg/kg treated arms. The procedure:
Effects of test compounds on phosphorylation of signal transducer and activator of transcription 5 (STAT5) were determined in L540 xenograft tumors.
Methods: Each treatment group included 10 NOD SCID mice. Each mouse was injected with 1×10^7 L540 cells (86% viable at the time of injection), and treated with a single dose of test compound (10 mg/kg or 25 mg/kg) 10 days post L540 cell injection. Tumors were collected 24 hours post treatment, snap frozen, and kept at −80° C. for 24 hours post-harvest. Phosphorylated STAT5 (pSTAT5) levels were measured in the lysates using the STAT5 AB pY694/699 ELISA Kit (Abcam, Cambridge, UK, ab176656). The standard Abcam ELISA protocol was followed, except for 10× more protein than what Abcam recommends was used.
(ELISA stands for enzyme-linked immunosorbent assay.)

The IC50 is the concentration needed to halve the response being measured. Take `COc1cc(N2CCN(C)CC2)c(Cl)cc1Nc1ncc(Cl)c(Nc2cccnc2N2CCCC2=O)n1` [Example No. 13, 1-(3-((5-chloro-2-((5-chloro-2-methoxy-4-(4-methylpiperazin-1-yl)phenyl)amino)pyrimidin-4-yl)amino)pyridin-2-yl)pyrrolidin-2-one]: the IC50 with K562 cells is 1.5 to 6 µM; on TNK1 it was less than 150 nM; in the experiment with L540 cells, less than 0.5 µM.
The corresponding values for `CN1CCN(c2c(Cl)cc(Nc3ncc(Cl)c(Nc4cccnc4N4CCCC4=O)n3)c3ccccc23)CC1` [Example No. 18, 1-(3-((5-chloro-2-((3-chloro-4-(4-methylpiperazin-1-yl)naphthalen-1-yl)amino)pyrimidin-4-yl)amino)pyridin-2-yl)pyrrolidin-2-one] are no less than 6 µM, less than 150 nM and less than 0.5 µM.
`COc1cc(N2CCN(C)CC2)c(Cl)cc1Nc1ncc(Cl)c(Nc2cccnc2N2CCNC2=O)n1` [Example No. 21, 1-(3-((5-chloro-2-((5-chloro-2-methoxy-4-(4-methylpiperazin-1-yl)phenyl)amino)pyrimidin-4-yl)amino)pyridin-2-yl)imidazolidin-2-one]: the IC50 is no less than 6 µM with K562 cells, less than 150 nM at TNK1 and 1.5 to 6 µM in the experiment on L540 cells.
For `CN1CCN(c2ccc(Nc3ncc(Cl)c(Nc4cccnc4N4CCCC4=O)n3)cc2)CC1` [compound 1, 1-(3-((5-chloro-2-((4-(4-methylpiperazin-1-yl)phenyl)amino)pyrimidin-4-yl)amino)pyridin-2-yl)pyrrolidin-2-one], the IC50 in the experiment with K562 cells was less than 0.5 µM; on TNK1, less than 150 nM; in the experiment with L540 cells it was 0.5 to 1.5 µM.
Consider `COc1cc(N2CCN(C)CC2)ccc1Nc1ncc(Cl)c(Nc2cccnc2N2CCCC2=O)n1` [compound 2, 1-(3-((5-chloro-2-((2-methoxy-4-(4-methylpiperazin-1-yl)phenyl)amino)pyrimidin-4-yl)amino)pyridin-2-yl)pyrrolidin-2-one], for which the results for the 50% inhibitory concentration (IC50) in the experiment on K562 cells, on TNK1 and in the experiment on L540 cells were 1.5 to 6 µM, less than 150 nM and 0.5 to 1.5 µM, respectively.
As for `CCOc1cc(N2CCN(C)CC2)ccc1Nc1ncc(Cl)c(Nc2cccnc2N(C)C)n1` [compound 3, 5-chloro-N^4-(2-(dimethylamino)pyridin-3-yl)-N^2-(2-ethoxy-4-(4-methylpiperazin-1-yl)phenyl)pyrimidine-2,4-diamine], the concentration for half-maximal inhibition (IC50) at TNK1 was greater than 1000 nM; with L540 cells, no less than 6 µM.
As for `CC(C)Oc1cc(N2CCN(C)CC2)ccc1Nc1ncc(Cl)c(Nc2cccnc2N(C)C)n1` [compound 4, 5-chloro-N^4-(2-(dimethylamino)pyridin-3-yl)-N^2-(2-isopropoxy-4-(4-methylpiperazin-1-yl)phenyl)pyrimidine-2,4-diamine], the concentration for half-maximal inhibition (IC50) in the experiment on K562 cells is 1.5 to 6 µM; at TNK1, greater than 1000 nM; in the experiment on L540 cells it was no less than 6 µM.
The corresponding values for `CN1CCN(c2ccc(Nc3ncc(Cl)c(Nc4cccnc4N(C)C)n3)cc2)CC1` [compound 5, 5-chloro-N^4-(2-(dimethylamino)pyridin-3-yl)-N^2-(4-(4-methylpiperazin-1-yl)phenyl)pyrimidine-2,4-diamine] are 1.5 to 6 µM, 150 to 1000 nM and 0.5 to 1.5 µM.
As to `COc1cc(N2CCN(C)CC2)c(C)cc1Nc1ncc(Cl)c(Nc2cccnc2N2CCNC2=O)n1` [compound 9, 1-(3-((5-chloro-2-((2-methoxy-5-methyl-4-(4-methylpiperazin-1-yl)phenyl)amino)pyrimidin-4-yl)amino)pyridin-2-yl)imidazolidin-2-one], the figures for the concentration for half-maximal inhibition (IC50) in the experiment on K562 cells, at TNK1 and in the experiment with L540 cells were no less than 6 µM, less than 150 nM and less than 0.5 µM, respectively. Moreover, the “dose dependence of p-STAT5 decrease” value in experiment [1] is “showed some dose dependence”.
For `COc1cc(N2CCN(C)CC2)c(C)cc1Nc1ncc(Br)c(Nc2cccnc2N(C)C)n1` [compound 10, 5-bromo-N^4-(2-(dimethylamino)pyridin-3-yl)-N^2-(2-methoxy-5-methyl-4-(4-methylpiperazin-1-yl)phenyl)pyrimidine-2,4-diamine], in that order: no less than 6 µM, less than 150 nM, less than 0.5 µM and “showed some dose dependence”.

Source of the values: patent US11529350B2, “Tyrosine kinase non-receptor 1 (TNK1) inhibitors and uses thereof” (Sumitomo Pharma Oncology, Inc., priority 2019, dated 2022).
